This is an account of results in article PMC4262413, “Importance of Tryptophan in Transforming an Amphipathic Peptide into a Pseudomonas aeruginosa-Targeted Antimicrobial Peptide” (PLoS ONE, 2014).

In brackets after ≈: the same amount, converted by molar mass. Like-named read-outs stand apart in the source and are kept apart here. Residues, ends and D or L forms follow the SMILES beside them.

What all share (experiment): microbe, parasite or virus in culture
The test system of one assay is S. aureus 29213. Format: cell-based, Staphylococcus aureus. How it is done:
(§1) Minimal inhibitory concentration (MIC) assays were performed as described previously. Briefly, after incubation overnight in Mueller-Hinton (MH) broth at 37°C, the bacteria were grown to exponential growth phase and diluted to approximately 1×10^5 CFU/ml. The peptides were dissolved in 0.2% bovine serum albumin (BSA) containing 0.01% (v/v) acetic acid, and they were then added to each well of a 96-well plates at a final concentration ranging from 0.25 to 128 µM. Each well contained a total volume of 100 µL (50 µL of inoculums and 50 µL of peptide-containing solution). The MICs were determined as the lowest concentration of peptide that prevented visible turbidity by visual inspection after incubation at 37°C for 16–18 h. Independent experiments were carried out at least three times. Uninoculated MH broth was used as a negative control and cultures without added peptides served as the positive control. Minimal bactericidal concentration (MBC) assay was performed following MIC assay. At the end of MIC assay 10 µL aliquots of the medium were taken from peptide-containing wells with no visible bacterial growth. These are plated on MH agar, incubated for 18 h to allow colony growth. The MBC was defined as the lowest peptide concentration resulting in no bacterial growth in the media. Each assay was performed at least three times.

A further assay concerns S. typhimurium 7731. The assay is classed as cell-based, Salmonella typhimurium. As to the method: as §1
For the next assay, the system named is S. epidermidis 12228. The assay is classed as cell-based, Staphyfococcus epidermidis. As to the method: as §1
For a further assay, the system named is P. auruginosa 21630. Format: cell-based, Pseudomonas aeruginosa. How it is done: as §1
Another assay relates to P. auruginosa LC. Format: cell-based, Pseudomonas aeruginosa. As to the method: as §1
In the next assay the test system is P. auruginosa 10419. The assay is classed as cell-based, Pseudomonas aeruginosa. How it is done: as §1
In another assay the test system is P. auruginosa 21625. Format: cell-based, Pseudomonas aeruginosa. How it is done:
as §1

Another assay deals with P. aeruginosa 27853. Format: cell-based, Pseudomonas aeruginosa. How it is done:
as §1

A further assay concerns E. coli 25922. The assay is classed as cell-based, Escherichia coli. How it is done:
as §1

Assay [1] relates to P. auruginosa LCCI (ciprofloxacin-resistant strain). How it is done: as §1
(§2) The antimicrobial activity of the RI16 and mutant peptides against Gram-negative and Gram-positive bacteria were determined.

The test system of assay [2] is P. auruginosa LCCE (ceftazidime-resistant strain). How it is done:
as §1, §2

The subject of assay [3] is P. auruginosa LCGE (gentamincin-resistant strain). As to the method: as §1, §2

For `CC[C@H](C)[C@H](NC(=O)[C@H](CCCCN)NC(=O)[C@H](CCCCN)NC(=O)[C@H](CC(C)C)NC(=O)[C@H](CCCNC(=N)N)NC(=O)[C@H](CCCCN)NC(=O)[C@H](CCCNC(=N)N)NC(=O)[C@H](CCCCN)NC(=O)[C@H](CCCCN)NC(=O)[C@H](CCCCN)NC(=O)[C@H](CCCNC(=N)N)NC(=O)[C@H](CC(C)C)NC(=O)[C@H](CCCNC(=N)N)NC(=O)[C@H](CCCNC(=N)N)NC(=O)[C@H](Cc1ccccc1)NC(=O)[C@@H](N)CCCNC(=N)N)C(N)=O` [T9K] (H-RFRRLRKKKRKRLKKI-NH2), the MIC in the assay with S. aureus 29213 (29213) worked out at 128 µM (≈ 283 µg/mL); in the assay on S. typhimurium 7731 (7731), 256 µM (≈ 566 µg/mL); against S. epidermidis 12228 (12228), 128 µM (≈ 283 µg/mL); in the assay with P. auruginosa 21630, 256 µM (≈ 566 µg/mL); in the assay on P. auruginosa LC it was 256 µM (≈ 566 µg/mL); against P. auruginosa 10419, 256 µM (≈ 566 µg/mL). Also, the MIC is given as 256 µM (≈ 566 µg/mL) in the assay on P. auruginosa 21625, 128 µM (≈ 283 µg/mL) in the assay with P. aeruginosa 27853 (27853) and 128 µM (≈ 283 µg/mL) in the assay on E. coli 25922 (25922).

Regarding `NCC[C@H](O)C(=O)N[C@@H]1C[C@H](N)[C@@H](O[C@H]2O[C@H](CN)[C@@H](O)[C@H](O)[C@H]2O)[C@H](O)[C@H]1O[C@H]1O[C@H](CO)[C@@H](O)[C@H](N)[C@H]1O` [Amikacin, reference compound], the MIC with S. aureus 29213 (Staphylococcus aureus, S. aureus 29213, MH broth, ~1×10^5 CFU/ml, 37°C, 16–18 h, visible turbidity, at least three independent experiments) was 1 µM (≈ 0.586 µg/mL); with S. typhimurium 7731 (Salmonella enterica, S. typhimurium 7731, MH broth, ~1×10^5 CFU/ml, 37°C, 16–18 h, visible turbidity, at least three independent experiments) it was 0.5 µM (≈ 0.293 µg/mL); in [1] (Pseudomonas aeruginosa), 8 µM (≈ 4.68 µg/mL); in assay [2] (Pseudomonas aeruginosa), 8 µM (≈ 4.68 µg/mL); in [3] (Pseudomonas aeruginosa), over 1280 µM; against S. epidermidis 12228 (Staphylococcus epidermidis, 12228), 0.125 µM (≈ 0.0732 µg/mL). Also, the MIC against P. auruginosa 21630 (Pseudomonas aeruginosa, P. auruginosa 21630, MH broth, ~1×10^5 CFU/ml, 37°C, 16–18 h, visible turbidity, at least three independent experiments) was 1 µM (≈ 0.586 µg/mL); with P. auruginosa LC (Pseudomonas aeruginosa, P. auruginosa LC, MH broth, ~1×10^5 CFU/ml, 37°C, 16–18 h, visible turbidity, at least three independent experiments), 0.25 µM (≈ 0.146 µg/mL); against P. auruginosa 10419 (Pseudomonas aeruginosa, P. auruginosa 10419, MH broth, ~1×10^5 CFU/ml, 37°C, 16–18 h, visible turbidity, at least three independent experiments) it was 2 µM (≈ 1.17 µg/mL); with P. auruginosa 21625 (Pseudomonas aeruginosa, P. auruginosa 21625, MH broth, ~1×10^5 CFU/ml, 37°C, 16–18 h, visible turbidity, at least three independent experiments) it was 16 µM (≈ 9.37 µg/mL); in the assay on P. aeruginosa 27853 (Pseudomonas aeruginosa, P. auruginosa 27853, MH broth, ~1×10^5 CFU/ml, 37°C, 16–18 h, visible turbidity, at least three independent experiments) it was 1 µM (≈ 0.586 µg/mL); against E. coli 25922 (Escherichia coli, 25922), 0.125 µM (≈ 0.0732 µg/mL).

Consider `O=C(O)c1cn(C2CC2)c2cc(N3CCNCC3)c(F)cc2c1=O` [ciprofloxacin, reference compound], for which the MIC in assay [1] (Pseudomonas aeruginosa) was over 512 µM.

For `CC[C@H](C)[C@H](NC(=O)[C@H](CCCCN)NC(=O)[C@H](CCCCN)NC(=O)[C@H](CC(C)C)NC(=O)[C@H](CCCNC(=N)N)NC(=O)[C@H](CCCCN)NC(=O)[C@H](CCCNC(=N)N)NC(=O)[C@@H](NC(=O)[C@H](CCCCN)NC(=O)[C@H](CCCCN)NC(=O)[C@H](CCCNC(=N)N)NC(=O)[C@H](CC(C)C)NC(=O)[C@H](CCCNC(=N)N)NC(=O)[C@H](CCCNC(=N)N)NC(=O)[C@H](Cc1ccccc1)NC(=O)[C@@H](N)CCCNC(=N)N)[C@@H](C)O)C(N)=O` [RI16] (H-RFRRLRKKTRKRLKKI-NH2), the MIC against S. aureus 29213 (S. aureus 29213, MH broth, ~1×10^5 CFU/ml, 37°C, 16–18 h, visible turbidity, at least three independent experiments) came out at 128 µM (≈ 279 µg/mL); in the assay with S. typhimurium 7731 (S. typhimurium 7731, MH broth, ~1×10^5 CFU/ml, 37°C, 16–18 h, visible turbidity, at least three independent experiments), 128 µM (≈ 279 µg/mL); in [1] (P. auruginosa LCCI, ciprofloxacin-resistant strain, MH broth, ~1×10^5 CFU/ml, 37°C, 16–18 h, visible turbidity) it was 256 µM (≈ 559 µg/mL); in [2] (P. auruginosa LCCE, ceftazidime-resistant strain, MH broth, ~1×10^5 CFU/ml, 37°C, 16–18 h, visible turbidity), 256 µM (≈ 559 µg/mL); in [3] (P. auruginosa LCGE, gentamincin-resistant strain, MH broth, ~1×10^5 CFU/ml, 37°C, 16–18 h, visible turbidity) it was 256 µM (≈ 559 µg/mL); against S. epidermidis 12228 (S. epidermidis 12228, MH broth, ~1×10^5 CFU/ml, 37°C, 16–18 h, visible turbidity, at least three independent experiments), 32 µM (≈ 69.8 µg/mL). Further, the MIC against P. auruginosa 21630 (P. auruginosa 21630, MH broth, ~1×10^5 CFU/ml, 37°C, 16–18 h, visible turbidity, at least three independent experiments) worked out at 256 µM (≈ 559 µg/mL); in the assay on P. auruginosa LC (P. auruginosa LC, MH broth, ~1×10^5 CFU/ml, 37°C, 16–18 h, visible turbidity, at least three independent experiments), 32 µM (≈ 69.8 µg/mL); against P. auruginosa 10419 (P. auruginosa 10419, MH broth, ~1×10^5 CFU/ml, 37°C, 16–18 h, visible turbidity, at least three independent experiments), 256 µM (≈ 559 µg/mL); against P. auruginosa 21625 (P. auruginosa 21625, MH broth, ~1×10^5 CFU/ml, 37°C, 16–18 h, visible turbidity, at least three independent experiments), 256 µM (≈ 559 µg/mL); against P. aeruginosa 27853 (P. auruginosa 27853, MH broth, ~1×10^5 CFU/ml, 37°C, 16–18 h, visible turbidity, at least three independent experiments), 256 µM (≈ 559 µg/mL); against E. coli 25922 (E. coli 25922, MH broth, ~1×10^5 CFU/ml, 37°C, 16–18 h, visible turbidity, at least three independent experiments) it was 128 µM (≈ 279 µg/mL).

In assay [2] (Pseudomonas aeruginosa), `CC(C)(O/N=C(\C(=O)N[C@@H]1C(=O)N2C(C(=O)[O-])=C(C[n+]3ccccc3)CS[C@H]12)c1csc(N)n1)C(=O)O` [ceftazidime, reference compound] returned an MIC of over 512 µM.

For `CC[C@H](C)[C@H](NC(=O)[C@H](CCCCN)NC(=O)[C@H](CCCCN)NC(=O)[C@H](CC(C)C)NC(=O)[C@H](CCCNC(=N)N)NC(=O)[C@H](CCCCN)NC(=O)[C@H](CCCNC(=N)N)NC(=O)[C@@H](NC(=O)[C@H](CCCCN)NC(=O)[C@H](CCCCN)NC(=O)[C@H](CCCNC(=N)N)NC(=O)[C@H](CC(C)C)NC(=O)[C@H](CCCNC(=N)N)NC(=O)[C@H](CCCNC(=N)N)NC(=O)[C@H](Cc1ccccc1)NC(=O)[C@@H](N)CCCNC(=N)N)[C@@H](C)CC)C(N)=O` [T9I] (H-RFRRLRKKIRKRLKKI-NH2), the MIC against S. aureus 29213 (29213) came out at 256 µM (≈ 562 µg/mL); in the assay with S. typhimurium 7731 (7731), 256 µM (≈ 562 µg/mL); in assay [1] it was 256 µM (≈ 562 µg/mL); in assay [2], 256 µM (≈ 562 µg/mL); in [3], 256 µM (≈ 562 µg/mL); in the assay on S. epidermidis 12228 (12228), 32 µM (≈ 70.2 µg/mL). Moreover, the MIC in the assay on P. auruginosa 21630 turned out to be 256 µM (≈ 562 µg/mL); against P. auruginosa LC it was 64 µM (≈ 140 µg/mL); in the assay on P. auruginosa 10419 it was 256 µM (≈ 562 µg/mL); against P. auruginosa 21625, 256 µM (≈ 562 µg/mL); against P. aeruginosa 27853 (27853), 256 µM (≈ 562 µg/mL); against E. coli 25922 (25922), 128 µM (≈ 281 µg/mL).

For the compound `CC[C@H](C)[C@H](NC(=O)[C@H](CCCCN)NC(=O)[C@H](CCCCN)NC(=O)[C@H](CC(C)C)NC(=O)[C@H](CCCNC(=N)N)NC(=O)[C@H](CCCCN)NC(=O)[C@H](CCCNC(=N)N)NC(=O)[C@H](Cc1ccccc1)NC(=O)[C@H](CCCCN)NC(=O)[C@H](CCCCN)NC(=O)[C@H](CCCNC(=N)N)NC(=O)[C@H](CC(C)C)NC(=O)[C@H](CCCNC(=N)N)NC(=O)[C@H](CCCNC(=N)N)NC(=O)[C@H](Cc1ccccc1)NC(=O)[C@@H](N)CCCNC(=N)N)C(N)=O` [T9F] (H-RFRRLRKKFRKRLKKI-NH2), the MIC is 128 µM (≈ 285 µg/mL) in the assay on S. aureus 29213 (29213); 128 µM (≈ 285 µg/mL) against S. typhimurium 7731 (7731); 256 µM (≈ 571 µg/mL) in assay [1]; 256 µM (≈ 571 µg/mL) in assay [2]; 256 µM (≈ 571 µg/mL) in assay [3]; 32 µM (≈ 71.3 µg/mL) against S. epidermidis 12228 (12228). In addition, the MIC against P. auruginosa 21630 is listed as 256 µM (≈ 571 µg/mL); in the assay with P. auruginosa LC it was 64 µM (≈ 143 µg/mL); with P. auruginosa 10419, 256 µM (≈ 571 µg/mL); with P. auruginosa 21625 it was 256 µM (≈ 571 µg/mL); against P. aeruginosa 27853 (27853), 256 µM (≈ 571 µg/mL); against E. coli 25922 (25922), 64 µM (≈ 143 µg/mL).
